Assay results: patent publication US8288367B2, “Substituted estratriene derivatives as 17BETA HSD inhibitors” (Solvay Pharmaceuticals GmBH, priority 2006, dated 2012)

Experiments:
[1] = biological target: T1, recombinant human 17β-HSD2 (Homo sapiens, UniProt P37059); experiment: Recombinant 17β-HSD2 assay (HPLC, 3H-estradiol conversion); assay type: biochemical; details: 50 nM estradiol, 1 mM β-NAD, read-out: Inhibition of rec. 17β-HSD2; for inhibition at 0.1 µM: 100 nM compound; for inhibition at 1 µM: 1 μm compound
T1 construct: made in house; host or cells: Sf9 insect cells (baculovirus, Bac to Bac Expression System)
T1 sequence (P37059 1-387): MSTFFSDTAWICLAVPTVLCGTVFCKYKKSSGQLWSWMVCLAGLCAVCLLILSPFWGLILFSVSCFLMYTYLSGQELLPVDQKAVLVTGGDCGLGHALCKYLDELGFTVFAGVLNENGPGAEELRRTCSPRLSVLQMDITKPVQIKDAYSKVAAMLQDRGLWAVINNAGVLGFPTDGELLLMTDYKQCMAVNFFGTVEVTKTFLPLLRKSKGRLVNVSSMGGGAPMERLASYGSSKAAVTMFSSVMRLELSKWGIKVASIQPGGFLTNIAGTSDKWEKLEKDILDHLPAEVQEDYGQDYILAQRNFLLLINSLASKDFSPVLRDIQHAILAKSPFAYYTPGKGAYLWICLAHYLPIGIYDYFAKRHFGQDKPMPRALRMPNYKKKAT
Protocol: 17β-HSD1 or 17β-HSD2 purification: Recombinant 17β-HSD1 and 17β-HSD2 baculoviruses were generated by the “Bac to Bac Expression System” (Invitrogen). Recombinant 17β-HSD1 or 17β-HSD2 bacmids were transfected to Sf9 insect cells using “Cellfectin Reagent” (Invitrogen). 60 h later cells were harvested; the fractions including 17β-HSD1 or 17β-HSD2 were isolated as described by Puranen et al. (1994). Aliquots were stored frozen until determination of enzymatic activity. Recombinant 17β-HSD2 assay: Recombinant 17β-HSD2 assay was performed as described for 17β-HSD1 but with following modifications: 6 μg/ml of recombinant protein homogenate, 50 nM Estradiol (Sigma, E8875) as a substrate, 800 000 cpm/ml ^3H-estradiol (PerkinElmer, NET317) as a tracer substrate and 1 mM β-NAD (Sigma N7004) as a co-factor were used. Total radioactivity for estrone and estradiol were determined in each sample and percent inhibition of estrone conversion by the respective inhibitor was calculated. For the calculation of % inhibition the following formula was used: [formula] Percent inhibition was calculated as follows: % inhibition=100−% conversion

[2] = biological target: T2, recombinant human 17β-HSD1 (Homo sapiens, UniProt P14061); experiment: Recombinant 17β-HSD1 assay (HPLC, 3H-estrone conversion); assay type: biochemical; details: 30 nM estrone, 1 mM NADPH, 30 min RT, read-out: Inhibition of rec. 17β-HSD1; for inhibition at 0.1 µM: 100 nM compound; for inhibition at 1 µM: 0.5 h, 1 μm compound
T2 construct: made in house; host or cells: Sf9 insect cells (baculovirus, Bac to Bac Expression System)
T2 sequence (P14061 1-328): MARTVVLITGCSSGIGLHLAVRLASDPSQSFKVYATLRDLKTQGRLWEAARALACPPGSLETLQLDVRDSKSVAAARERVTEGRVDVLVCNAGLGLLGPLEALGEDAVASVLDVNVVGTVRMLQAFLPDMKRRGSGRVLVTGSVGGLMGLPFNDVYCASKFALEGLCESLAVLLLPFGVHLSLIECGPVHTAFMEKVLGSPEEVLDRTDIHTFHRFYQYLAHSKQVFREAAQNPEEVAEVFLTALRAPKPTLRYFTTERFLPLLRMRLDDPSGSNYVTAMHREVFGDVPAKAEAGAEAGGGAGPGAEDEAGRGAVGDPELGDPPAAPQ
Protocol: 17β-HSD1 or 17β-HSD2 purification: Recombinant 17β-HSD1 and 17β-HSD2 baculoviruses were generated by the “Bac to Bac Expression System” (Invitrogen). Recombinant 17β-HSD1 or 17β-HSD2 bacmids were transfected to Sf9 insect cells using “Cellfectin Reagent” (Invitrogen). 60 h later cells were harvested; the fractions including 17β-HSD1 or 17β-HSD2 were isolated as described by Puranen et al. (1994). Aliquots were stored frozen until determination of enzymatic activity.
Recombinant 17β-HSD1 assay: Recombinant protein homogenate (0.1 μg/ml) was incubated in 20 mM KH2PO4 pH 7.4 reaction buffer, including protease inhibitors (Complete Protease Inhibitor Cocktail tablet, Roche Diagnostics, 1697498), with 30 nM estrone (Sigma, E9750) as substrate, 800 000 cpm/ml ^3H-estrone (PerkinElmer, NET319001MC) as a tracer substrate, and 1 mM NADPH (Sigma, N1630) as a co-factor for 30 min at RT, in the presence of potential inhibitors at concentrations of 1 μM or 0.1 μM. Inhibitor stock solutions were prepared in DMSO. The enzyme reaction was stopped by addition of trichloroacetic acid (1% final concentration). Samples were centrifuged in a microtiter plate at 4000 rpm for 10 min. Supernatants were applied to reverse phase HPLC on a Waters Symmetry C18 column, equipped with a Waters Sentry Guard column. Isocratic HPLC runs were performed at RT at a flow rate of 1 ml/min of acetonitrile:water 48:52 as running solvent. Radioactivity was monitored in the eluate by a Packard Flow Scintillation Analyzer. Total radioactivity for estrone and estradiol were determined in each sample and percent inhibition of estradiol conversion by the respective inhibitor was calculated
For the calculation of % inhibition the following formula was used:
[formula] Percent inhibition was calculated as follows: % inhibition=100−% conversion

Structure (SMILES) | inhibition at 0.1 µM [1] [%] | inhibition at 1 µM [1] [%] | inhibition at 0.1 µM [2] [%] | inhibition at 1 µM [2] [%]
Cc1cnc(NC(=O)CC[C@@H]2CC(=O)[C@@]3(C)CC[C@@H]4c5ccc(C(N)=O)cc5CC[C@H]4[C@H]23)s1 [Compound 3, 15β-{3-[(5-methyl-1,3-thiazol-2-yl)amino]-3-oxopropyl}-17-oxoestra-1(10),2,4-triene-3-carboxamide] | -1.8 | 8.6 | 20 | 74
Cc1cnc(NC(=O)CC[C@@H]2CC(=O)[C@@]3(C)CC[C@@H]4c5ccc(B(O)O)cc5CC[C@H]4[C@H]23)s1 [Compound 11, [15β-{3-[(5-methyl-1,3-thiazol-2-yl)amino]-3-oxopropyl}-17-oxoestra-1(10),2,4-trien-3-yl]boronic acid] | 4.2 | 5.5 | 62 | 88
C[C@]12CC[C@@H]3c4ccc(B(O)O)cc4CC[C@H]3[C@@H]1[C@@H](CCCC(=O)NCc1ccc(O)c(O)c1)CC2=O [Compound 12, [15alpha-{4-[(3,4-dihydroxybenzyl)amino]-4-oxobutyl}-17-oxoestra-1(10),2,4-trien-3-yl]boronic acid] | -5 | 6.2 | 32 | 57
Cc1cnc(NC(=O)CCC[C@H]2CC(=O)[C@@]3(C)CC[C@@H]4c5ccc(B(O)O)cc5CC[C@H]4[C@H]23)s1 [Compound 16, [15alpha-{4-[(5-methyl-1,3-thiazol-2-yl)amino]-4-oxobutyl}-17-oxoestra-1(10),2,4-trien-3-yl]boronic acid] | – | – | 30 | 59
C[C@]12CC[C@@H]3c4ccc(B(O)O)cc4CC[C@H]3[C@@H]1[C@@H](CCCC(=O)NCc1ccc3c(c1)OCO3)CC2=O [Compound 19, [15alpha-{4-[(1,3-benzodioxol-5-ylmethyl)amino]-4-oxobutyl}-17-oxoestra-1(10),2,4-trien-3-yl]boronic acid] | -2.4 | 0.1 | 19 | 43
CN(Cc1ccccc1)C(=O)CCC[C@H]1CC(=O)[C@@]2(C)CC[C@@H]3c4ccc(B(O)O)cc4CC[C@H]3[C@H]12 [Compound 22, [15alpha-{4-[benzyl(methyl)amino]-4-oxobutyl}-17-oxoestra-1(10),2,4-trien-3-yl]boronic acid] | – | – | 37 | 60
C[C@]12CC[C@@H]3c4ccc(B(O)O)cc4CC[C@H]3[C@@H]1[C@@H](CCCC(=O)NCc1ccccc1)CC2=O [Compound 23, [15alpha-[4-(benzylamino)-4-oxobutyl]-17-oxoestra-1(10),2,4-trien-3-yl]boronic acid] | 1.8 | 0.4 | 76 | 54
COc1ccc(CCN(C)C(=O)CCC[C@H]2CC(=O)[C@@]3(C)CC[C@@H]4c5ccc(B(O)O)cc5CC[C@H]4[C@H]23)cc1OC [Compound 26, [15alpha-(4-{[2-(3,4-dimethoxyphenyl)ethyl](methyl)amino}-4-oxobutyl)-17-oxoestra-1(10),2,4-trien-3-yl]boronic acid] | – | – | 21 | 41
Cc1cccc2c(CCNC(=O)CC[C@@H]3CC(=O)[C@@]4(C)CC[C@@H]5c6ccc(B(O)O)cc6CC[C@H]5[C@H]34)c[nH]c12 [Compound 30, [15beta-(3-{[2-(7-methyl-1H-indol-3-yl)ethyl]amino}-3-oxopropyl)-17-oxoestra-1(10),2,4-trien-3-yl]boronic acid] | 1.3 | 6.3 | 50 | 56
Cc1cnc(NC(=O)CC[C@@H]2CC(=O)[C@@]3(C)CC[C@@H]4c5ccc(B(O)O)cc5CC[C@H]4[C@H]23)s1 [Compound 31, [15beta-{3-[(5-methyl-1,3-thiazol-2-yl)amino]-3-oxopropyl}-17-oxoestra-1(10),2,4-trien-3-yl]boronic acid] | 2.6 | 1.6 | 82 | 90
C[C@]12CC[C@@H]3c4ccc(B(O)O)cc4CC[C@H]3[C@@H]1[C@H](CCC(=O)NC1CCCCC1)CC2=O [Compound 32, [15beta-[3-(cyclohexylamino)-3-oxopropyl]-17-oxoestra-1(10),2,4-trien-3-yl]boronic acid] | 1.1 | 3.5 | 77 | 91
C[C@]12CC[C@@H]3c4ccc(B(O)O)cc4CC[C@H]3[C@@H]1[C@H](CCC(=O)N1CCOCC1)CC2=O [Compound 33, [15beta-(3-morpholin-4-yl-3-oxopropyl)-17-oxoestra-1(10),2,4-trien-3-yl]boronic acid] | -2.3 | -1.1 | 20 | 59
CN(Cc1ccccc1)C(=O)CC[C@@H]1CC(=O)[C@@]2(C)CC[C@@H]3c4ccc(B(O)O)cc4CC[C@H]3[C@H]12 [Compound 37, [15beta-{3-[benzyl(methyl)amino]-3-oxopropyl}-17-oxoestra-1(10),2,4-trien-3-yl]boronic acid] | – | – | 22 | 49
COc1cc(Nc2ccc3c(c2)CC[C@H]2[C@@H]4[C@@H](CCCC(=O)N5CCOCC5)CC(=O)[C@@]4(C)CC[C@H]32)cc(C(F)(F)F)c1 [Compound 75, 3-{[3-methoxy-5-(trifluoromethyl)phenyl]amino}-15alpha-(4-morpholin-4-yl-4-oxobutyl)estra-1(10),2,4-trien-17-one] | – | – | 36 | 50
C[C@]12CC[C@@H]3c4ccc(Nc5cccc(S(=O)(=O)N6CCOCC6)c5)cc4CC[C@H]3[C@@H]1[C@@H](CCCC(=O)N1CCOCC1)CC2=O [Compound 76, 15alpha-(4-morpholin-4-yl-4-oxobutyl)-3-{[3-(morpholin-4-ylsulfonyl)phenyl]amino}estra-1(10),2,4-trien-17-one] | – | – | 29 | 26
C[C@]12CC[C@@H]3c4ccc(Nc5cnc6ccccc6c5)cc4CC[C@H]3[C@@H]1[C@@H](CCCC(=O)N1CCOCC1)CC2=O [Compound 83, 15alpha-(4-morpholin-4-yl-4-oxobutyl)-3-(quinolin-3-ylamino)estra-1(10),2,4-trien-17-one] | – | – | 19 | 50
